Converted amounts (≈) assume the structure as drawn. Like-named read-outs stand apart in the source and are kept apart here.
Tests used:
[1] = cited from earlier work
[2] = recent report; cited from earlier work
[3] = molecular target: mutant forms (ΔF508) of CFTR (Homo sapiens, UniProt P13569, DEL508-508); conditions: cited from earlier work
[4] = system: rat colon epithelial cells; conditions: cited from earlier work
[5] = system: chemokine receptors (CXCR2/b); assay: Cl- transport/efflux in Calu-3 cells, IL-8 via chemokine receptors; type: cell-based, human
[6] = system: adenylyl cyclase activity; assay: adenylyl cyclase activity in Calu-3 cells; type: cell-based, human; conditions: FIG. 6
C5aR (CD88) = molecular target: T1, C5aR (CD88) (Homo sapiens, UniProt P21730); assay: Cl- efflux in Calu-3 cells, C5a via C5aR; type: cell-based
T1 construct: endogenous in cells; host or cells: Calu-3 (ATCC HTB-55)
T1 sequence (P21730 1-350): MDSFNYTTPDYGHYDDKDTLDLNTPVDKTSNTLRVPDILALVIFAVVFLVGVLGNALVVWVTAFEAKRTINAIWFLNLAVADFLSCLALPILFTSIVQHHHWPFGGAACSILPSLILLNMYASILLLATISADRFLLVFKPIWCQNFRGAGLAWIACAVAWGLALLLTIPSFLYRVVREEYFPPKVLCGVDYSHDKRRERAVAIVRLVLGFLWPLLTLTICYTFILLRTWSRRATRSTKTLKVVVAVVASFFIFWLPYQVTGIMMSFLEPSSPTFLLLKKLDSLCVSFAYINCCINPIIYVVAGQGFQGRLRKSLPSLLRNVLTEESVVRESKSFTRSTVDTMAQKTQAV

mutant forms (ΔF508) of CFTR, sequence (P13569 with tags, fused parts or gaps DEL508-508): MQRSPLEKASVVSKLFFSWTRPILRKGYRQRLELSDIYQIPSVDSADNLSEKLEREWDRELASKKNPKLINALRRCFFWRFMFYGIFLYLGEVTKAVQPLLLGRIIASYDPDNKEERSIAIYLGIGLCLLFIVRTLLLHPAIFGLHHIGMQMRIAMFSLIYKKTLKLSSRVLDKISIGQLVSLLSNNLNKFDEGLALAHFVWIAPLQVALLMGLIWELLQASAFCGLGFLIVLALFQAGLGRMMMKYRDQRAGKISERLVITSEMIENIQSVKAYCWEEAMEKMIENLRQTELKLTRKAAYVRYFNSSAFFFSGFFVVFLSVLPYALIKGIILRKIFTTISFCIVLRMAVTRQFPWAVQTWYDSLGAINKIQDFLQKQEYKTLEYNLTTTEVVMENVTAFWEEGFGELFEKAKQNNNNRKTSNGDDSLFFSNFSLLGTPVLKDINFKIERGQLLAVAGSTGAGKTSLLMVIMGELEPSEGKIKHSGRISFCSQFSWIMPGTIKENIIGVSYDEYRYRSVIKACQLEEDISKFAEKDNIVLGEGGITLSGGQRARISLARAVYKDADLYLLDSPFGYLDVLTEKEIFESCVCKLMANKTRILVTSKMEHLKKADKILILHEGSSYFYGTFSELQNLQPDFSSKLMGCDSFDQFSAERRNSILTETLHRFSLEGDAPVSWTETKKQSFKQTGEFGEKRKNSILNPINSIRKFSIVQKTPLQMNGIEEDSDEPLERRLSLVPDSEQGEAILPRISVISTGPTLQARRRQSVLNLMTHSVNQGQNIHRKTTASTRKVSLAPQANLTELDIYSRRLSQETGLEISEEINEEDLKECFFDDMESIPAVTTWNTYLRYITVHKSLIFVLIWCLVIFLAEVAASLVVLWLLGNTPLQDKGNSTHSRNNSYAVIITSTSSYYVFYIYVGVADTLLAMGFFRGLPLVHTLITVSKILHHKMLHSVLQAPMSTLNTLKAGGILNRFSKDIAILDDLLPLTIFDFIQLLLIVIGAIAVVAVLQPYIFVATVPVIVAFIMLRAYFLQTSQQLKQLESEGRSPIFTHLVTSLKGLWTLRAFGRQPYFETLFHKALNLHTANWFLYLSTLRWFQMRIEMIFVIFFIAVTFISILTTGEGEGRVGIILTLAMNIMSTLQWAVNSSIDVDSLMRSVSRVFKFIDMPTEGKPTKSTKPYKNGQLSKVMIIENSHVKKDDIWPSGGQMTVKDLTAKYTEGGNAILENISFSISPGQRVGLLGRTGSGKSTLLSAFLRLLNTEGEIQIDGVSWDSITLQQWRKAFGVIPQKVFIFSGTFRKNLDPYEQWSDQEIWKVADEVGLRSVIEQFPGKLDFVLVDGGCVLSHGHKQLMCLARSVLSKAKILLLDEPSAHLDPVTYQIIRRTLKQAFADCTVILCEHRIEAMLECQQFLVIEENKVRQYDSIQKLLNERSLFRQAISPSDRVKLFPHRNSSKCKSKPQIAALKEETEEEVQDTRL

Molecule: CNc1ccc2oc(C[C@H]3O[C@@]4(CC[C@H]3C)O[C@H]([C@H](C)C(=O)c3ccc[nH]3)[C@H](C)C[C@H]4C)nc2c1C(=O)O [A23187, calcimycin]
- Solubility ([1]; in DMSO): 50 mg/mL (≈ 95.5 mM)
- Solubility ([1]; in EtOH): 5 mg/mL (≈ 9.55 mM)

Molecule: CCCn1c(=O)c2[nH]c(C3CCCC3)nc2n(CCC)c1=O [CPX, 8-cyclo-pentyl-1,3-dipropylxanthine]
- efficacy in treating mild cystic fibrosis [2]: somewhat effective

Molecule: CC(C)Cn1c(=O)n(C)c(=O)c2[nH]cnc21 [IBMX]
- activity of mutant CFTR, chloride transport function [3]: able to stimulate some activity

Molecule: O=c1c(O)c(-c2ccc(O)c(O)c2)oc2cc(O)cc(O)c12 [quercetin]
- Cl- secretion [4]: induce Cl^− secretion

Molecule: IL-8: chemokine released on activation of innate immunity, activates CXCR2
- basal levels of Cl- transport ([5]; Calu-3 cells, via CXCR2/b, FIG. 9): inhibits
- cAMP dependent Cl- efflux ([5]; FIG. 10): inhibits

B1: C5a: proinflammatory anaphylatoxin peptide generated during complement activation, acts through C5aR (protein, UniProt P01031 678-751, looked up)
C5a anaphylatoxin: TLQKKIEEIAAKYKHSVVKKCCYDGACVNNDETCEQRAARISLGPRCIKAFTECCVVASQLRANISHKDMQLGR
modifications: C5a anaphylatoxin
- adenylyl cyclase activity [6]: inhibits
- basal Cl- efflux (C5aR (CD88); Calu-3 cells, via C5aR (CD88), FIG. 7): inhibits
- cAMP dependent Cl- efflux (C5aR (CD88); FIG. 8): inhibits

Reference: US20080114080A1, “Compositions and Methods for the Treatment of Cystic Fibrosis and other Pulmonary Disorders” (priority 2006, published 2008)
